Test [1] addresses T1, HCV polymerase (NS5B) type 1b (Hepatitis C virus genotype 1b, UniProt P26663).
T1 construct: a region encoding NS5B (J Virol 1991 March, 65(3), 1105-13, 544 amino acids after deletion of 47 amino acids on the C-terminal); 6xHis (C); made in house; host or cells: Escherichia coli
Kind of test: Assay of enzyme (HCV polymerase) inhibitory activity, type 1b enzyme. Particulars: HCV polymerase inhibitory activity (IC50), 1b, type 1b enzyme 0.5 μg/ml, 25° C., 60 min. Format: biochemical, HCV BK strain (type 1b). The procedure, abridged: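 IC50 derived from [3H]UTP incorporation into TCA-insoluble RNA, compared with and without test compound. Reaction (25 °C, 60 min, Tris pH 7.5, 5 mM MgCl2): E. coli-expressed 1b NS5B Δ47 with His tag at 0.5 μg/ml, 5 μg/ml run-off substrate RNA, ATP/GTP/CTP 50 μM, UTP 2 μM.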

The target in test [2] is T2, HCV polymerase (NS5B) type 1a (Hepatitis C virus genotype 1a, UniProt P26664).
T2 construct: made in house; host or cells: Escherichia coli (by the 'similar method' of the 1b enzyme)
Kind of test: Assay of enzyme (HCV polymerase) inhibitory activity, type 1a enzyme. It counts as biochemical, HCV type 1a (cloned from the blood of patients). Particulars: HCV polymerase inhibitory activity (IC50), 1a, type 1a enzyme 1.5 μg/ml, 25° C., 60 min. The gist of the method:
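Reactions ran 60 min at 25° C in 20 mM Tris-HCl pH 7.5, 5 mM MgCl2, 50 mM NaCl, holding genotype 1a NS5B (1.5 μg/ml, Δ47 C-terminus, 6His), substrate RNA 5 μg/ml, UTP 2 μM with tritiated UTP and other NTPs 50 μM. IC50 derived from incorporated radiolabel in filter-trapped RNA relative to uninhibited reaction.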

Where a name gives a salt, the structure may show the parent alone.

Results on 21 molecules are retold here after patent US8017612B2, “Piperazine compound and use thereof as a HCV polymerase inhibitor” (priority 2006, dated 2011).

Consider `CN(C)c1ccc(CNC(=O)C2CN(C(=O)OC(C)(C)C)CCN2S(=O)(=O)c2ccc(I)cc2)cc1` (stereo not drawn) [Example 82, 3-(4-dimethylamino-benzylcarbamoyl)-4-(4-iodo-benzenesulfonyl)-piperazine-1-carboxylic acid tert-butyl ester], for which the 50% inhibitory concentration (IC50) in test [1] and in test [2] was above 1000 nM throughout.

As to `CC(=O)N1CCN(S(=O)(=O)c2ccc(OC(C)C)cc2)C(C(=O)NCc2ccc(C(F)(F)F)cc2)C1` (stereo not drawn) [Example 83, 4-acetyl-1-(4-isopropoxy-benzenesulfonyl)-piperazine-2-carboxylic acid 4-trifluoromethyl-benzylamide], the IC50 in test [1] and in test [2] was above 1000 nM in each case.

For `CN(C)c1ccc(CNC(=O)C2CNCCN2S(=O)(=O)c2ccc(I)cc2)cc1` (stereo not drawn) [Example 84, 1-(4-iodo-benzenesulfonyl)-piperazine-2-carboxylic acid 4-dimethylamino-benzylamide hydrochloride], the IC50 in test [1] and in test [2] was above 1000 nM in each case.

In the case of `CC(=O)N1CCN(S(=O)(=O)c2ccc(I)cc2)C(C(=O)NCc2ccc(N(C)C)cc2)C1` (stereo not drawn) [Example 85, 4-acetyl-1-(4-iodo-benzenesulfonyl)-piperazine-2-carboxylic acid 4-dimethylamino-benzylamide], the IC50 (in general, the concentration that gives 50% inhibition) in test [1] was above 1000 nM; in test [2] it was 100 to 1000 nM.

As to `CN(C)c1ccc(CNC(=O)C2CN(C(=O)CNC(=O)OC(C)(C)C)CCN2S(=O)(=O)c2ccc(I)cc2)cc1` (stereo not drawn) [Example 86, {2-[3-(4-dimethylamino-benzylcarbamoyl)-4-(4-iodo-benzenesulfonyl)-piperazin-1-yl]-2-oxo-ethyl}-carbamic acid tert-butyl ester], the IC50 in test [1] and in test [2] was above 1000 nM each time.

As to `CN(C)c1ccc(CNC(=O)C2CN(C(=O)CCNC(=O)OC(C)(C)C)CCN2S(=O)(=O)c2ccc(I)cc2)cc1` (stereo not drawn) [Example 87, {3-[3-(4-dimethylamino-benzylcarbamoyl)-4-(4-iodo-benzenesulfonyl)-piperazin-1-yl]-3-oxo-propyl}-carbamic acid tert-butyl ester], the IC50 in test [1] and in test [2] was above 1000 nM in each case.

For the molecule `CN(C)c1ccc(CNC(=O)C2CN(C(=O)CN)CCN2S(=O)(=O)c2ccc(I)cc2)cc1` (stereo not drawn) [Example 88, 4-(2-amino-acetyl)-1-(4-iodo-benzenesulfonyl)-piperazine-2-carboxylic acid 4-dimethylamino-benzylamide hydrochloride], the IC50 in test [1] and in test [2] was above 1000 nM each time.

For `CN(C)c1ccc(CNC(=O)C2CN(C(=O)CCN)CCN2S(=O)(=O)c2ccc(I)cc2)cc1` (stereo not drawn) [Example 89, 4-(3-amino-propionyl)-1-(4-iodo-benzenesulfonyl)-piperazine-2-carboxylic acid 4-dimethylamino-benzylamide hydrochloride], the IC50 in test [1] and in test [2] was above 1000 nM in each case.

With `CC(=O)N1CCN(S(=O)(=O)c2ccc(C(C)C)cc2)C(C(=O)NCc2ccc(N)cc2)C1` (stereo not drawn) [Example 90, 4-acetyl-1-(4-isopropyl-benzenesulfonyl)-piperazine-2-carboxylic acid 4-amino-benzylamide], the IC50 in test [1] and in test [2] was above 1000 nM in each case.

On to `CCCCc1ccc(S(=O)(=O)N2CCN(C(C)=O)CC2C(=O)NCc2ccc(C(F)(F)F)cc2)cc1` (stereo not drawn) [Example 91, 4-acetyl-1-(4-butyl-benzenesulfonyl)-piperazine-2-carboxylic acid 4-trifluoromethyl-benzylamide], for which the IC50 in test [1] and in test [2] was above 1000 nM in each case.

`CC(=O)N1CCN(S(=O)(=O)c2ccc(N(C)C)cc2)C(C(=O)NCc2ccc(C(F)(F)F)cc2)C1` (stereo not drawn) [Example 92, 4-acetyl-1-(4-dimethylamino-benzenesulfonyl)-piperazine-2-carboxylic acid 4-trifluoromethyl-benzylamide]: the IC50 in test [1] and in test [2] was above 1000 nM throughout.

For the molecule `CC(=O)N1CCN(S(=O)(=O)c2ccc(N)cc2)C(C(=O)NCc2ccc(C(F)(F)F)cc2)C1` (stereo not drawn) [Example 93, 4-acetyl-1-(4-amino-benzenesulfonyl)-piperazine-2-carboxylic acid 4-trifluoromethyl-benzylamide hydrochloride], the 50% inhibitory concentration (IC50) in test [1] and in test [2] was above 1000 nM throughout.

Regarding `COC(=O)CN1CCN(S(=O)(=O)c2ccc(I)cc2)C(C(=O)NCc2ccc(N(C)C)cc2)C1` (stereo not drawn) [Example 94, [3-(4-dimethylamino-benzylcarbamoyl)-4-(4-iodo-benzenesulfonyl)-piperazin-1-yl]-acetic acid methyl ester], the IC50 in test [1] and in test [2] was above 1000 nM in each case.

Take `CN(C)CC(=O)N1CCN(S(=O)(=O)c2ccc(I)cc2)C(C(=O)NCc2ccc(N(C)C)cc2)C1` (stereo not drawn) [Example 95, 4-(2-dimethylamino-acetyl)-1-(4-iodo-benzenesulfonyl)-piperazine-2-carboxylic acid 4-dimethylamino-benzylamide]: the IC50 in test [1] and in test [2] was above 1000 nM in each case.

Turning to `CN(C)c1ccc(CNC(=O)C2CN(CC(=O)O)CCN2S(=O)(=O)c2ccc(I)cc2)cc1` (stereo not drawn) [Example 96, [3-(4-dimethylamino-benzylcarbamoyl)-4-(4-iodo-benzenesulfonyl)-piperazin-1-yl]-acetic acid], the IC50 in test [1] and in test [2] was above 1000 nM each time.

For the molecule `CCC(C)(C)c1ccc(S(=O)(=O)N2CCN(C(C)=O)CC2C(=O)NCc2ccc(C(F)(F)F)cc2)cc1` (stereo not drawn) [Example 97, 4-acetyl-1-[4-(1,1-dimethyl-propyl)-benzenesulfonyl]-piperazine-2-carboxylic acid 4-trifluoromethyl-benzylamide], the IC50 in test [1] and in test [2] was above 1000 nM in each case.

Take `CC(=O)N1CCN(S(=O)(=O)c2ccc(C(C)C)cc2)C(C(=O)NCc2ccc(NC(=O)C(C)(C)C)cc2)C1` (stereo not drawn) [Example 98, 4-acetyl-1-(4-isopropyl-benzenesulfonyl)-piperazine-2-carboxylic acid 4-(2,2-dimethyl-propionylamino)-benzylamide]: the IC50 in test [1] and in test [2] was above 1000 nM each time.

Take `CC(=O)N1CCN(S(=O)(=O)c2ccc(C(C)C)cc2)C(C(=O)NCc2ccc(C(=O)O)cc2)C1` (stereo not drawn) [Example 99, 4-({[4-acetyl-1-(4-isopropyl-benzenesulfonyl)-piperazine-2-carbonyl]-amino}-methyl)-benzoic acid]: the IC50 in test [1] and in test [2] was above 1000 nM each time.

With `CC(=O)N1CCN(S(=O)(=O)c2ccc(C(C)C)cc2)C(C(=O)NCc2ccc(Cl)c(Cl)c2)C1` (stereo not drawn) [Example 100, 4-acetyl-1-(4-isopropyl-benzenesulfonyl)-piperazine-2-carboxylic acid 3,4-dichloro-benzylamide], the IC50 in test [1] and in test [2] was above 1000 nM each time.

In the case of `CC(=O)N1CCN(S(=O)(=O)c2ccc(C(C)C)cc2)C(C(=O)NCc2ccc(Cl)cc2Cl)C1` (stereo not drawn) [Example 101, 4-acetyl-1-(4-isopropyl-benzenesulfonyl)-piperazine-2-carboxylic acid 2,4-dichloro-benzylamide], the IC50 in test [1] and in test [2] was above 1000 nM throughout.

In the case of `CN(C)c1ccc(CNC(=O)C2CN(C(=O)CN3CCCCC3)CCN2S(=O)(=O)c2ccc(I)cc2)cc1` (stereo not drawn) [Example 102, 1-(4-iodo-benzenesulfonyl)-4-(2-piperidin-1-yl-acetyl)-piperazine-2-carboxylic acid 4-dimethylamino-benzylamide], the IC50 in test [1] and in test [2] was above 1000 nM in each case.
